Numbers after ± are expanded uncertainties.
Conditions: for mass density: Fluid (supercritical or subcritical phases), Vibrating tube method

Compound C/C=C\C [(Z)-2-butene] has a mass density (453.24 K, 29992 kPa) of 504.64 ± 1.2 kg/m3, a mass density (453.24 K, 34997 kPa) of 516.94 ± 1.3 kg/m3 and a mass density (453.24 K, 39986 kPa) of 527.56 ± 1.4 kg/m3. It also gave a mass density (458.24 K, 5019 kPa) of 150.54 ± 0.7 kg/m3, a mass density (458.24 K, 9982 kPa) of 395.53 ± 0.93 kg/m3 and a mass density (458.24 K, 14988 kPa) of 439.55 ± 0.99 kg/m3. For the same compound, the mass density (458.24 K, 20006 kPa) was 465.63 ± 1.1 kg/m3, the mass density (458.24 K, 24985 kPa) was 484.52 ± 1.2 kg/m3 and the mass density (458.24 K, 30000 kPa) was 499.71 ± 1.2 kg/m3. It also gave a mass density (458.24 K, 34991 kPa) of 512.34 ± 1.3 kg/m3, a mass density (458.24 K, 39989 kPa) of 523.28 ± 1.4 kg/m3 and a mass density (463.23 K, 39987 kPa) of 519.02 ± 1.4 kg/m3. It also gave a mass density (463.24 K, 5019 kPa) of 137.08 ± 0.68 kg/m3, a mass density (463.24 K, 9986 kPa) of 383.54 ± 0.91 kg/m3 and a mass density (463.24 K, 14987 kPa) of 431.68 ± 0.97 kg/m3. The mass density (463.24 K, 20001 kPa) was 459.21 ± 1.1 kg/m3, the mass density (463.24 K, 24986 kPa) was 479.01 ± 1.1 kg/m3 and the mass density (463.24 K, 29986 kPa) was 494.71 ± 1.2 kg/m3. It also gave a mass density (463.24 K, 34995 kPa) of 507.77 ± 1.3 kg/m3, a mass density (468.24 K, 5018 kPa) of 127.59 ± 0.66 kg/m3 and a mass density (468.24 K, 10000 kPa) of 371.16 ± 0.89 kg/m3. The mass density (468.24 K, 14996 kPa) was 423.86 ± 0.96 kg/m3, the mass density (468.24 K, 20007 kPa) was 452.9 ± 1.1 kg/m3 and the mass density (468.24 K, 24993 kPa) was 473.52 ± 1.1 kg/m3. For the same compound, the mass density (468.24 K, 29993 kPa) was 489.76 ± 1.2 kg/m3, the mass density (468.24 K, 34996 kPa) was 503.22 ± 1.3 kg/m3 and the mass density (468.24 K, 40007 kPa) was 514.77 ± 1.4 kg/m3. The mass density (473.23 K, 5018 kPa) was 120.28 ± 0.64 kg/m3, the mass density (473.24 K, 9991 kPa) was 357.88 ± 0.87 kg/m3 and the mass density (473.24 K, 14997 kPa) was 415.28 ± 0.94 kg/m3. It also gave a mass density (473.24 K, 20004 kPa) of 446.42 ± 1 kg/m3, a mass density (473.24 K, 25004 kPa) of 467.94 ± 1.1 kg/m3 and a mass density (473.24 K, 30000 kPa) of 484.78 ± 1.2 kg/m3. For the same compound, the mass density (473.24 K, 34996 kPa) was 498.62 ± 1.3 kg/m3, the mass density (473.24 K, 39991 kPa) was 510.47 ± 1.4 kg/m3 and the mass density (478.23 K, 14995 kPa) was 407.2 ± 0.92 kg/m3. The mass density (478.23 K, 19994 kPa) was 439.87 ± 1 kg/m3, the mass density (478.23 K, 25001 kPa) was 462.4 ± 1.1 kg/m3 and the mass density (478.23 K, 35013 kPa) was 494.09 ± 1.3 kg/m3. The mass density (478.23 K, 39992 kPa) was 506.21 ± 1.4 kg/m3, the mass density (478.24 K, 5015 kPa) was 114.19 ± 0.61 kg/m3 and the mass density (478.24 K, 9987 kPa) was 344.22 ± 0.84 kg/m3. It also gave a mass density (478.24 K, 29999 kPa) of 479.77 ± 1.2 kg/m3, a mass density (483.23 K, 5018 kPa) of 109.23 ± 0.59 kg/m3 and a mass density (483.23 K, 19992 kPa) of 433.21 ± 1 kg/m3. It also gave a mass density (483.24 K, 10014 kPa) of 330.62 ± 0.82 kg/m3, a mass density (483.24 K, 14991 kPa) of 398.7 ± 0.91 kg/m3 and a mass density (483.24 K, 25005 kPa) of 456.72 ± 1.1 kg/m3. For the same compound, the mass density (483.24 K, 29995 kPa) was 474.68 ± 1.2 kg/m3, the mass density (483.24 K, 34999 kPa) was 489.39 ± 1.3 kg/m3 and the mass density (483.24 K, 39992 kPa) was 501.87 ± 1.4 kg/m3. The mass density (488.23 K, 5019 kPa) was 104.99 ± 0.56 kg/m3, the mass density (488.23 K, 19987 kPa) was 426.61 ± 1 kg/m3 and the mass density (488.23 K, 25005 kPa) was 451.11 ± 1.1 kg/m3. For the same compound, the mass density (488.23 K, 29989 kPa) was 469.66 ± 1.2 kg/m3, the mass density (488.23 K, 34990 kPa) was 484.81 ± 1.3 kg/m3 and the mass density (488.23 K, 39992 kPa) was 497.63 ± 1.4 kg/m3. For the same compound, the mass density (488.24 K, 10014 kPa) was 316.46 ± 0.79 kg/m3, the mass density (488.24 K, 15002 kPa) was 390.34 ± 0.89 kg/m3 and the mass density (493.23 K, 5016 kPa) was 101.23 ± 0.54 kg/m3. For the same compound, the mass density (493.23 K, 9986 kPa) was 301.65 ± 0.76 kg/m3, the mass density (493.23 K, 14996 kPa) was 381.74 ± 0.88 kg/m3 and the mass density (493.23 K, 19990 kPa) was 420.02 ± 0.98 kg/m3. For the same compound, the mass density (493.23 K, 24987 kPa) was 445.42 ± 1.1 kg/m3, the mass density (493.23 K, 29998 kPa) was 464.71 ± 1.2 kg/m3 and the mass density (493.23 K, 35003 kPa) was 480.29 ± 1.3 kg/m3. For the same compound, the mass density (493.23 K, 40013 kPa) was 493.44 ± 1.4 kg/m3, the mass density (498.23 K, 5018 kPa) was 97.97 ± 0.51 kg/m3 and the mass density (498.23 K, 9985 kPa) was 287.72 ± 0.73 kg/m3. The mass density (498.23 K, 14994 kPa) was 373.12 ± 0.86 kg/m3, the mass density (498.23 K, 19993 kPa) was 413.38 ± 0.97 kg/m3 and the mass density (498.23 K, 24997 kPa) was 439.84 ± 1.1 kg/m3. For the same compound, the mass density (498.23 K, 29994 kPa) was 459.71 ± 1.2 kg/m3, the mass density (498.23 K, 35006 kPa) was 475.76 ± 1.2 kg/m3 and the mass density (498.23 K, 40006 kPa) was 489.2 ± 1.4 kg/m3. The mass density (503.23 K, 5019 kPa) was 95.03 ± 0.49 kg/m3, the mass density (503.23 K, 10004 kPa) was 274.87 ± 0.7 kg/m3 and the mass density (503.23 K, 14996 kPa) was 364.53 ± 0.84 kg/m3. For the same compound, the mass density (503.23 K, 20003 kPa) was 406.9 ± 0.96 kg/m3, the mass density (503.23 K, 24990 kPa) was 434.25 ± 1.1 kg/m3 and the mass density (503.23 K, 29984 kPa) was 454.72 ± 1.1 kg/m3. For the same compound, the mass density (503.23 K, 34985 kPa) was 471.2 ± 1.2 kg/m3, the mass density (503.23 K, 39993 kPa) was 485.02 ± 1.3 kg/m3 and the mass density (508.23 K, 5019 kPa) was 92.41 ± 0.46 kg/m3. For the same compound, the mass density (508.23 K, 9990 kPa) was 262 ± 0.68 kg/m3, the mass density (508.23 K, 15002 kPa) was 356.04 ± 0.83 kg/m3 and the mass density (508.23 K, 19984 kPa) was 400.28 ± 0.94 kg/m3. It also gave a mass density (508.23 K, 25008 kPa) of 428.76 ± 1.1 kg/m3, a mass density (508.23 K, 29983 kPa) of 449.83 ± 1.1 kg/m3 and a mass density (508.23 K, 35004 kPa) of 466.79 ± 1.2 kg/m3. The mass density (508.23 K, 40004 kPa) was 480.91 ± 1.3 kg/m3, the mass density (513.23 K, 5014 kPa) was 89.94 ± 0.44 kg/m3 and the mass density (513.23 K, 9984 kPa) was 250.08 ± 0.65 kg/m3. The mass density (513.23 K, 14990 kPa) was 347.39 ± 0.81 kg/m3, the mass density (513.23 K, 19997 kPa) was 393.83 ± 0.93 kg/m3 and the mass density (513.23 K, 25007 kPa) was 423.21 ± 1 kg/m3. It also gave a mass density (513.23 K, 29985 kPa) of 444.89 ± 1.1 kg/m3, a mass density (513.23 K, 35002 kPa) of 462.3 ± 1.2 kg/m3 and a mass density (513.23 K, 40010 kPa) of 476.76 ± 1.3 kg/m3. The mass density (518.22 K, 5019 kPa) was 87.78 ± 0.42 kg/m3, the mass density (518.22 K, 14988 kPa) was 338.79 ± 0.8 kg/m3 and the mass density (518.22 K, 25002 kPa) was 417.6 ± 1 kg/m3. The mass density (518.22 K, 30005 kPa) was 440.02 ± 1.1 kg/m3, the mass density (518.22 K, 39988 kPa) was 472.55 ± 1.3 kg/m3 and the mass density (518.23 K, 9996 kPa) was 239.51 ± 0.63 kg/m3. It also gave a mass density (518.23 K, 20004 kPa) of 386.86 ± 0.92 kg/m3, a mass density (518.23 K, 34991 kPa) of 457.76 ± 1.2 kg/m3 and a mass density (523.22 K, 5019 kPa) of 85.68 ± 0.41 kg/m3. It also gave a mass density (523.22 K, 9990 kPa) of 229.24 ± 0.66 kg/m3, a mass density (523.22 K, 14985 kPa) of 330.32 ± 0.83 kg/m3 and a mass density (523.22 K, 25011 kPa) of 412.04 ± 1 kg/m3. For the same compound, the mass density (523.22 K, 29990 kPa) was 435.04 ± 1.1 kg/m3, the mass density (523.22 K, 34984 kPa) was 453.26 ± 1.2 kg/m3 and the mass density (523.22 K, 40013 kPa) was 468.46 ± 1.3 kg/m3. For the same compound, the mass density (523.23 K, 20001 kPa) was 380.33 ± 0.92 kg/m3, the Critical pressure (Liquid) was 4225.5 ± 11 kPa and the Critical temperature (Liquid) was 435.75 ± 0.11 K. It also gave a Critical density (Liquid, visual observation in a variable volume cell:FP) of 238.12 ± 4.8 kg/m3.

From the NIST ThermoML archive (doi:10.1016/j.fluid.2004.09.013)
